Experiments:
[1] = system: Akt; experiment: Akt activation (phosphorylation) immunoblot in HUVEC; type: cell-based, human; details: 100 μmol/l; 0 to 60 minutes
Description: First, to a HuMedia-EB2 medium (Kurabo) to which 2 v/v % inactivated fetal bovine serum (FBS) had been added, 2-Cl—C.OXT-A was added so that its concentration became 100 μmol/l. Thus, a medium was prepared. Using the medium, human umbilical vein endothelial cells (HUVEC) were cultured for predetermined periods (0, 10, 20, 30, 45, and 60 minutes).
After the culture, cells were collected. The collected cells were lysed by adding a cell lysis buffer (SDS-lysis buffer) thereto, and heat-denatured at 95° C. for 5 minutes. The solubilized protein in an amount corresponding to 5 v/v % of the heat-denatured cell lysate was subjected to electrophoresis using 10% SDS-polyacrylamide gel, whereby the solubilized protein was transferred onto a nitrocellulose membrane (Amersham Biosciences). […]
The enzymes were visualized with SuperSignal (registered trademark) West Pico Chemiluminescent Substrate (Pierce), and detected by being exposed to RX—U X-ray film (FUJIFILM Corporation). From the detected bands, the respective phosphoenzymes and total enzymes were quantified using an NIH image software. Furthermore, the relative value (−fold) of each phosphoenzyme was calculated by substituting the measured value of the phosphoenzyme into the following equation (III).

[2] = system: human umbilical vein endothelial cells (HUVEC) and normal human dermal fibroblasts; experiment: Measurement of lumen formation (angiogenesis kit, CD31 immunostaining, lumen area); type: cell-based
Description: The measurement of lumen formation was carried out in the following manner using commercially available angiogenesis kits (Kurabo), each including human umbilical vein endothelial cells (HUVEC) and normal human dermal fibroblasts. First, sample solutions were prepared by dissolving 2-Cl—C.OXT-A in physiological saline so as to achieve predetermined concentrations (1, 10, 100, 500 μmol/l, 1, 5, 10, 50 mmol/l). Then, the sample solutions containing 2-Cl—C.OXT-A at the predetermined concentrations respectively were added to media provided in the kits so that their concentrations became 10 v/v %. Thus, lumen formation media were prepared. The final concentrations of 2-Cl—C.OXT-A in the lumen formation media were 0.1, 1, 10, 50, 100, 500 μmol/l, 1 and 5 mmol/1.
Using each of the lumen formation media, the human umbilical vein endothelial cells (HUVEC) and the normal human dermal fibroblasts were cultured for 10 days. After the culture, the human umbilical vein endothelial cells (HUVEC) were immunostained using a lumen staining kit (for CD31 staining, Kurabo). Then, using NIH Image (image processing and analysis software), the area of a portion stained by the immunostaining (lumen area) was measured. As a control, a medium provided in the kit was used instead of the lumen formation medium to carry out the culture, and the cells were immunostained and the lumen area was measured in the same manner as in the above. Then, using the following equation (II), the relative value of lumen area in the culture using each of the lumen formation media containing 2-Cl—C.OXT-A at the predetermined concentrations was calculated.
In the present example, the relative value of lumen area was calculated in the same manner as in the lumen formation measurement in Example 1, except that the measurement was carried out with respect to four groups respectively using media Nos. 5 to 8 prepared by adding 2-Cl—C.OXT-A and PD98059 to media provided in the above-described angiogenesis kits (Kurabo) so that their concentrations became as shown in Table 2 below. In the group using the medium No. 7, the culture was conducted using the medium No. 7 from the first to third days of the culture and the medium No. 5 from the fourth to tenth days of the culture, and in the group using the medium No. 8, the culture was conducted using the medium No. 8 from the first to third days of the culture and the medium No. 6 from the fourth to tenth days of the culture.
In the present example, the relative value of lumen area was calculated in the same manner as in the lumen formation measurement in Example 1, except that the measurement was carried out with respect to six groups respectively using media Nos. 15 to 20 prepared by adding 2-Cl—C.OXT-A, VEGF (positive control), and SU5416 to media provided in the above-described angiogenesis kit (Kurabo) so that their concentrations became as shown in Table 4 below. In the group using the medium No. 16, the culture was conducted using the medium No. 16 from the first to third days of the culture and the medium No. 15 from the fourth to tenth days of the culture; in the group using the medium No. 18, the culture was conducted using the medium No. 18 from the first to third days of the culture and the medium No. 17 from the fourth to tenth days of the culture; and in the group using the medium No. 20, the culture was conducted using the medium No. 20 from the first to third days of the culture and the medium No. 19 from the fourth to tenth days of the culture.

Nc1nc(Cl)nc2c1ncn2C1CC(CO)C1CO (stereo not drawn) [2-Cl—C.OXT-A, 6-amino-2-chloro-9-[trans-trans-2,3-bis(hydroxymethyl)cyclobutyl]purine]
amount of pAkt [1]: not changed | relative value of lumen area compared with control ([2]; Example 7, medium No. 6: only 2-Cl—C.OXT-A 10 μmol/l): about 3 fold | lumen area ([2]; Example 9, medium No. 17: 2-Cl—C.OXT-A 10 μmol/l): increased markedly | relative value of lumen area ([2]; final concentration 100 nmol/l to 1 mmol/l, versus control): larger than that of the control | stained area (lumen formation, immunostaining photographs) ([2]; final concentration 10 μmol/l to 1 mmol/l, 10 days, versus control): larger than that in the control | relative value of lumen area ([2]; final concentration 100 μmol/l, highest activity): 3.8 | lumen formation promoting-activity compared with VEGF (relative value of lumen area) ([2]; final concentration 10 to 500 μmol/l, VEGF 10 ng/ml): higher than that in Comparative Example 7 | lumen formation promoting-activity compared with VEGF (photographs) ([2]; final concentrations 10 and 100 μmol/l, VEGF 10 ng/ml): higher than that in Comparative Example 7

From patent US20110230659A1, “CYCLOBUTYL PURINE DERIVATIVE, ANGIOGENESIS PROMOTING AGENT, LUMEN FORMATION PROMOTING AGENT, NEUROCYTE GROWTH PROMOTING AGENT, AND DRUG” (NATIONAL UNIVERSITY CORPORATION KAGAWA UNIVERSITY, priority 2008, published 2011)
